# Measurements reported in paper PMC6150413 (Molecules : A Journal of Synthetic Chemistry and Natural …, 2017).
# Read-outs that look alike come from different tables or passages of the source. Peptide text beside a SMILES is read from it.
# Assays:
# S. aureus ATCC 25923 = test system: S. aureus ATCC 25923
# Procedure: (§1) The antimicrobial activities of VIP and its analogues were tested against S. aureus ATCC 25923 and E. coli ATCC 25922 according to the method reported by Wani et al. with slight modification. The final peptide concentrations ranged from 0.5 to 256 μM. The tests were performed in triplicate using 4 replicates for each experiment. In addition, S. aureus ATCC 25923 and E. coli ATCC 25922 (2 × 10^6 CFU/mL) were treated with natural VIP and VIP8 at MIC for 2 h. […] The haemolytic activity of VIP and VIP derivatives were measured using porcine erythrocytes according to previous method. MTT (3-[4,5 dimethylthiozol-2-yl]-2,5-diphenyltetrazolium bromide) was used to determine the cytotoxicity of VIP and its analogue on porcine intestinal epithelial cells IPEC-J2. Stable experiments were conducted with reference to the literature with slightly changes. First, the pH of the mediums was adjusted to acidic (pH 4.0, pH 5.0, and pH 6.0) and basic (pH 8.0, pH 9.0, and pH 10.0) conditions. To investigate the effects of ion strength, the bacterial mediums were supplemented with different concentrations of NaCl (20 mM, 60 mM, and 180 mM) or MgCl2 (1 mM, 25 mM, and 50 mM). Then, bacteria were incubated with VIP, VIP analogues 2 and 8, respectively. After 3 h of incubation, bacterial viability was measured with a Synergy HT multimode reader (BioTek, Winooski, VT, USA) at 600 nm.
# (§2) Both the agar diffusion test and modified broth microdilution method were used to evaluate the antimicrobial activity of recombinant expressed VIP8. For the Oxford cup agar diffusion, the sample was added to an Oxford cup, which was then placed on a Mueller-Hinton agar plate containing 1 × 10^5 colony-forming units of S. aureus […]. Chemically-synthesized VIP8 and ampicillin were used as the positive control. The minimal inhibition concentration was determined by the method reported by Wani et al..
# E. coli ATCC 25922 = test system: E. coli ATCC 25922
# Procedure: as §1, §2
# [1] = S. aureus ATCC 25923, peptide 0.5 to 256 μM, triplicate, 4 replicates each, Table 2
# [2] = E. coli ATCC 25922, peptide 0.5 to 256 μM, triplicate, 4 replicates each, Table 2
structure (smiles),measurement,setting,value
"CC[C@H](C)[C@H](NC(=O)CNC(=O)[C@H](CCC(=O)O)NC(=O)[C@H](CO)NC(=O)[C@@H](NC(=O)[C@H](CCCNC(=N)N)NC(=O)[C@H](CCCCN)NC(=O)[C@H](CCCCN)NC(=O)[C@H](C)NC(=O)[C@H](CO)NC(=O)[C@H](CC(N)=O)NC(=O)[C@H](CCC(=O)O)NC(=O)[C@H](CC(C)C)NC(=O)[C@H](CCCCN)NC(=O)[C@H](CCCCN)NC(=O)[C@H](C)NC(=O)[C@@H](NC(=O)[C@H](CCCCN)NC(=O)[C@H](CO)NC(=O)[C@H](CC(C)C)NC(=O)[C@H](Cc1c[nH]c2ccccc12)NC(=O)[C@@H](N)CO)[C@@H](C)O)[C@@H](C)CC)C(=O)N[C@@H](C)C(=O)N[C@H](C(=O)N[C@@H](C)C(=O)N[C@H](C(=O)N[C@@H](CCC(N)=O)C(=O)NCC(=O)NCC(=O)N1CCC[C@H]1C(=O)N[C@@H](CCCNC(=N)N)C(=O)O)[C@@H](C)CC)[C@@H](C)CC [Cecropin P1, reference compound] (H-SWLSKTAKKLENSAKKRISEGIAIAIQGGPR-OH)",MBC (minimum bactericidal concentration),"S. aureus ATCC 25923; ATCC 25923, 2 h",8 µM
same,MIC (minimal inhibitory concentration),"S. aureus ATCC 25923; ATCC 25923, 2 h",8 µM
same,MIC (minimum inhibitory concentration),"S. aureus ATCC 25923; ATCC 25923, 2 h",8 µM
same,MBC (minimum bactericidal concentration),"E. coli ATCC 25922; ATCC 25922, 2 h",4 µM
same,MIC (minimal inhibitory concentration),"E. coli ATCC 25922; ATCC 25922, 2 h",2 µM
same,MIC (minimum inhibitory concentration),"E. coli ATCC 25922; ATCC 25922, 2 h",2 µM
CC[C@H](C)[C@H](NC(=O)[C@H](CO)NC(=O)[C@H](CC(N)=O)NC(=O)[C@H](CC(C)C)NC(=O)[C@H](Cc1ccc(O)cc1)NC(=O)[C@H](CCCCN)NC(=O)[C@H](CCCCN)NC(=O)[C@@H](NC(=O)[C@H](C)NC(=O)[C@H](CCSC)NC(=O)[C@H](CCC(N)=O)NC(=O)[C@H](CCCCN)NC(=O)[C@H](CCCNC(=N)N)NC(=O)[C@H](CC(C)C)NC(=O)[C@H](CCCNC(=N)N)NC(=O)[C@@H](NC(=O)[C@H](Cc1ccc(O)cc1)NC(=O)[C@H](CC(N)=O)NC(=O)[C@H](CCCCN)NC(=O)[C@@H](NC(=O)[C@H](Cc1ccccc1)NC(=O)[C@@H](NC(=O)[C@H](C)NC(=O)[C@H](CCCCN)NC(=O)[C@H](CO)NC(=O)[C@@H](N)Cc1c[nH]cn1)C(C)C)[C@@H](C)O)[C@@H](C)O)C(C)C)C(=O)N[C@@H](CC(C)C)C(=O)N[C@@H](CC(N)=O)C(=O)O [VIP2] (H-HSKAVFTKNYTRLRKQMAVKKYLNSILN-OH),Cytotoxicity (in words),3T3-L1 cells,no cytotoxicity
same,MBC (minimum bactericidal concentration),"S. aureus ATCC 25923; ATCC 25923, 2 h",128 µM
same,MIC (minimum inhibitory concentration),"S. aureus ATCC 25923; ATCC 25923, 2 h",64 µM
same,MBC (minimum bactericidal concentration),"E. coli ATCC 25922; ATCC 25922, 2 h",32 µM
same,MIC (minimum inhibitory concentration),"E. coli ATCC 25922; ATCC 25922, 2 h",16 µM
CC[C@H](C)[C@H](NC(=O)[C@H](CO)NC(=O)[C@H](CC(N)=O)NC(=O)[C@H](CC(C)C)NC(=O)[C@H](CO)NC(=O)[C@H](CCCCN)NC(=O)[C@H](CCCCN)NC(=O)[C@@H](NC(=O)[C@H](C)NC(=O)[C@H](CCSC)NC(=O)[C@H](CCC(N)=O)NC(=O)[C@H](CCCCN)NC(=O)[C@H](CCCNC(=N)N)NC(=O)[C@H](CC(C)C)NC(=O)[C@H](CCCNC(=N)N)NC(=O)[C@@H](NC(=O)[C@H](CO)NC(=O)[C@H](CC(N)=O)NC(=O)[C@H](CC(=O)O)NC(=O)[C@@H](NC(=O)[C@H](Cc1ccccc1)NC(=O)[C@@H](NC(=O)[C@H](C)NC(=O)[C@H](CC(=O)O)NC(=O)[C@H](CO)NC(=O)[C@@H](N)Cc1c[nH]cn1)C(C)C)[C@@H](C)O)[C@@H](C)O)C(C)C)C(=O)N[C@@H](CC(C)C)C(=O)N[C@@H](CC(N)=O)C(=O)O [VIP3] (H-HSDAVFTDNSTRLRKQMAVKKSLNSILN-OH),MBC (minimum bactericidal concentration),S. aureus ATCC 25923; [1],>256 µM
same,MIC (minimum inhibitory concentration),S. aureus ATCC 25923; [1],>256 µM
same,MBC (minimum bactericidal concentration),E. coli ATCC 25922; [2],>256 µM
same,MIC (minimum inhibitory concentration),E. coli ATCC 25922; [2],>256 µM
CC[C@H](C)[C@H](NC(=O)[C@H](CO)NC(=O)[C@H](CC(N)=O)NC(=O)[C@H](CC(C)C)NC(=O)[C@H](Cc1ccc(O)cc1)NC(=O)[C@H](CCCCN)NC(=O)[C@H](CCCCN)NC(=O)[C@@H](NC(=O)[C@H](C)NC(=O)[C@H](CCSC)NC(=O)[C@H](CCC(N)=O)NC(=O)[C@H](CCCCN)NC(=O)[C@H](CCCNC(=N)N)NC(=O)[C@H](CC(C)C)NC(=O)[C@H](CCCNC(=N)N)NC(=O)[C@@H](NC(=O)[C@H](Cc1ccc(O)cc1)NC(=O)[C@H](CC(N)=O)NC(=O)[C@H](CC(=O)O)NC(=O)[C@@H](NC(=O)[C@H](Cc1ccccc1)NC(=O)[C@@H](NC(=O)[C@H](C)NC(=O)[C@H](CC(=O)O)NC(=O)[C@H](CO)NC(=O)[C@@H](N)Cc1c[nH]cn1)C(C)C)[C@@H](C)O)[C@@H](C)O)C(C)C)C(=O)N[C@@H](CC(C)C)C(=O)N[C@H](C(=O)O)[C@@H](C)O [VIP4] (H-HSDAVFTDNYTRLRKQMAVKKYLNSILT-OH),MBC (minimum bactericidal concentration),"S. aureus ATCC 25923; ATCC 25923, 2 h",>256 µM
same,MIC (minimum inhibitory concentration),"S. aureus ATCC 25923; ATCC 25923, 2 h",>256 µM
same,MBC (minimum bactericidal concentration),"E. coli ATCC 25922; ATCC 25922, 2 h",>256 µM
same,MIC (minimum inhibitory concentration),"E. coli ATCC 25922; ATCC 25922, 2 h",>256 µM
CC[C@H](C)[C@H](NC(=O)[C@H](CO)NC(=O)[C@H](CC(N)=O)NC(=O)[C@H](CC(C)C)NC(=O)[C@H](Cc1ccc(O)cc1)NC(=O)[C@H](CCCCN)NC(=O)[C@H](CCCCN)NC(=O)[C@@H](NC(=O)[C@H](C)NC(=O)[C@H](CCSC)NC(=O)[C@H](CCC(N)=O)NC(=O)[C@H](CCCCN)NC(=O)[C@H](CCCNC(=N)N)NC(=O)[C@H](CC(C)C)NC(=O)[C@H](CCCNC(=N)N)NC(=O)[C@@H](NC(=O)[C@H](Cc1ccc(O)cc1)NC(=O)[C@H](CC(N)=O)NC(=O)[C@H](CCCCN)NC(=O)[C@@H](NC(=O)[C@H](Cc1ccccc1)NC(=O)[C@@H](NC(=O)[C@H](C)NC(=O)[C@H](CCCCN)NC(=O)[C@H](CO)NC(=O)[C@@H](N)Cc1c[nH]cn1)C(C)C)[C@@H](C)O)[C@@H](C)O)C(C)C)C(=O)N[C@@H](CC(C)C)C(=O)N[C@H](C(=O)O)[C@@H](C)O [VIP5] (H-HSKAVFTKNYTRLRKQMAVKKYLNSILT-OH),MBC (minimum bactericidal concentration),"S. aureus ATCC 25923; ATCC 25923, 2 h",>256 µM
same,MIC (minimum inhibitory concentration),"S. aureus ATCC 25923; ATCC 25923, 2 h",>256 µM
same,MBC (minimum bactericidal concentration),"E. coli ATCC 25922; ATCC 25922, 2 h",>256 µM
same,MIC (minimum inhibitory concentration),"E. coli ATCC 25922; ATCC 25922, 2 h",>256 µM
CC[C@H](C)[C@H](NC(=O)[C@H](CO)NC(=O)[C@H](CC(N)=O)NC(=O)[C@H](CC(C)C)NC(=O)[C@H](CO)NC(=O)[C@H](CCCCN)NC(=O)[C@H](CCCCN)NC(=O)[C@@H](NC(=O)[C@H](C)NC(=O)[C@H](CCSC)NC(=O)[C@H](CCC(N)=O)NC(=O)[C@H](CCCCN)NC(=O)[C@H](CCCNC(=N)N)NC(=O)[C@H](CC(C)C)NC(=O)[C@H](CCCNC(=N)N)NC(=O)[C@@H](NC(=O)[C@H](CO)NC(=O)[C@H](CC(N)=O)NC(=O)[C@H](CC(=O)O)NC(=O)[C@@H](NC(=O)[C@H](Cc1ccccc1)NC(=O)[C@@H](NC(=O)[C@H](C)NC(=O)[C@H](CC(=O)O)NC(=O)[C@H](CO)NC(=O)[C@@H](N)Cc1c[nH]cn1)C(C)C)[C@@H](C)O)[C@@H](C)O)C(C)C)C(=O)N[C@@H](CC(C)C)C(=O)N[C@H](C(=O)O)[C@@H](C)O [VIP6] (H-HSDAVFTDNSTRLRKQMAVKKSLNSILT-OH),MBC (minimum bactericidal concentration),"S. aureus ATCC 25923; ATCC 25923, 2 h",>256 µM
same,MIC (minimum inhibitory concentration),"S. aureus ATCC 25923; ATCC 25923, 2 h",>256 µM
same,MBC (minimum bactericidal concentration),"E. coli ATCC 25922; ATCC 25922, 2 h",>256 µM
same,MIC (minimum inhibitory concentration),"E. coli ATCC 25922; ATCC 25922, 2 h",>256 µM
CC[C@H](C)[C@H](NC(=O)[C@H](C)NC(=O)[C@H](C)NC(=O)[C@H](CC(C)C)NC(=O)[C@H](Cc1ccc(O)cc1)NC(=O)[C@H](CCCNC(=N)N)NC(=O)[C@H](CCCNC(=N)N)NC(=O)[C@@H](NC(=O)[C@H](C)NC(=O)[C@H](CC(C)C)NC(=O)[C@H](CCC(N)=O)NC(=O)[C@H](CCCNC(=N)N)NC(=O)[C@H](CCCNC(=N)N)NC(=O)[C@H](CC(C)C)NC(=O)[C@H](CCCNC(=N)N)NC(=O)[C@@H](NC(=O)[C@H](Cc1ccc(O)cc1)NC(=O)[C@H](CC(N)=O)NC(=O)[C@H](C)NC(=O)[C@@H](NC(=O)[C@H](Cc1ccccc1)NC(=O)[C@@H](NC(=O)[C@H](C)NC(=O)[C@H](CC(=O)O)NC(=O)[C@H](CO)NC(=O)[C@@H](N)Cc1c[nH]cn1)C(C)C)[C@@H](C)O)[C@@H](C)O)C(C)C)C(=O)N[C@@H](CC(C)C)C(=O)NCC(=O)N[C@@H](CCCNC(=N)N)C(=O)N[C@@H](CCCNC(=N)N)C(=O)O [VIP7] (H-HSDAVFTANYTRLRRQLAVRRYLAAILGRR-OH),MBC (minimum bactericidal concentration),"S. aureus ATCC 25923; ATCC 25923, 2 h",32 µM
same,MIC (minimum inhibitory concentration),"S. aureus ATCC 25923; ATCC 25923, 2 h",16 µM
same,MBC (minimum bactericidal concentration),"E. coli ATCC 25922; ATCC 25922, 2 h",8 µM
same,MIC (minimum inhibitory concentration),"E. coli ATCC 25922; ATCC 25922, 2 h",8 µM
